# Laboratory results as given in patent publication US9526713B2, “Use of dencichine in preparation of drug for treating thrombocytopenia” (KUNMING SHENGHUO PHARMACEUTICAL (GROUP) CO., LTD., priority 2013, dated 2016).
# Where two headings read alike, the source gives them in different places.
# How the values were obtained:
# thrombocyte aggregation = experiment: Thrombocyte aggregation rate of rats injected with carboplatin; assay type: in vivo, rat
# From the text: So far, it has been reported that a little dencichine can be used as hemostatic drug in prior art, as disclosed in the patent application with publication No. CN1292376A that administrating a little dencichine can achieve hemostasis. However, it has never been reported that dencichine is able to treat Thrombocytopenia.
# [1] = assay type: in vivo, BALB/C mice
# Procedure: Health BALB/C mice (body weight 18˜22 g) are randomly divided into six groups with 12 mice for each group:
# Except the normal group, the mice of the remain five groups are injected with anti-mouse platelet serum (APS) of the guinea pig with a dose of 100 μl/20 g body weight, via intraperitoneal injection, on the 1st, 3rd, 5th, 7th, 9th, 11th and 13th day of the experiment.
# The mice of each group are given intragastric administration from the first day. […] The mice of the prednisone acetate group are given intragastric administration of suspension of prednisone acetate at 5 mg/(kg·d). The mice of other groups are given intragastric administration of same volumetric of normal saline at 0.2 ml/20 g body weight. Intragastric administration for once each day, and continuous administration for 14 days.
# The weights of mice of each group are respectively measured before modeling, on 7th test day, and on 14th test day.
# female mouse = details: cited from earlier work
# [2] = test system: rats suffering thrombopenia induced by carboplatin; experiment: Platelet count of rats suffering thrombopenia induced by multiple injections of carboplatin; assay type: in vivo, Wistar rats; details: for increase of platelet count compared with the model group: first injection of carboplatin for 10 days
# Procedure: (§1) 81 rats are prepared and randomly divided into eight groups: • blank control group, • high-dose group A (4 mg/kg, intraperitoneal injection, non modeling), • model group (40 mg/kg, tail vein injection), • interleukin-11 group (260 μg/kg, subcutaneous injection), • high dose group B (4 mg/kg, intraperitoneal injection, modeling), • high dose group (4 mg/kg, intraperitoneal injection), • middle dose group (1 mg/kg, intraperitoneal injection), and • low dose group (0.25 mg/kg, intraperitoneal injection),
# wherein, the Model group has 11 rats, and the other groups has 10 rats respectively. Before the experiment, the animals are asked to adapt the environment for 2 days, and then blood is taken from their tails for detecting hematological index.
# After administration for 10 days, blood is taken from tails of rats from blank control group, high-dose group A, and positive drug group respectively for detecting hematological index.
# (§2) Thereafter, all animals, except for those of blank group and high-dose group A, are individually injected with carboplatin (40 mg/kg) for modeling, and followed by successive administration for 15 days. During these 15 days, the rats of high-dose group A and high dose group B are stopped from administration, and taken blood from the tail on 5th day, 10th day and 15th day after the modeling respectively for detecting hematological indices. After 15th day of modeling, carboplatin (40 mg/kg) is injected again for a second modeling, and all the groups take successive administration according to the foregoing method, once a day for successive 10 days. Before each hematological indices detection, animals are weighed respectively. Taking the tails' blood of rats on 5th day after the second injection of carboplatin for detecting hematological indices, and taking the tails' blood of rats on 10th day after the second injection of carboplatin for detecting the indices of hematology, reticulocytes and coagulation; and weighing animals and killing them; and weighing liver, thymus, spleen and adrenal gland taken from the dead rats, and calculating out viscera indices; further taking out marrow for doing pathological examination.
# [3] = Organ index of rats suffering thrombopenia induced by carboplatin; assay type: in vivo, Wistar rats
# Procedure: as §1, §2
# [4] = high dose group A, 4 mg/kg i.p., non modeling
# [5] = high dose group B, 4 mg/kg i.p., prophylactic, modeling
# [6] = low dose group, 0.25 mg/kg i.p.
# [7] = middle dose group, 1 mg/kg i.p.
smiles,measurement,setting,value
"N[C@@H](CNC(=O)C(=O)O)C(=O)O [Dencichine, β-N-oxalyl-L-α, β-diaminopropionic acid]",thrombocyte aggregation rate,thrombocyte aggregation,increasing thrombocyte aggregation rate
same,body weight,"[1]; high dose group (6 mg/kg per Table 8) intragastric, Day 0",19.5 ± 1.5 g
same,body weight,"[1]; high dose group (6 mg/kg per Table 8) intragastric, Day 7",19.8 ± 1.4 g
same,body weight,"[1]; high dose group (6 mg/kg per Table 8) intragastric, Day 14",20.3 ± 1.8 g
same,body weight,"[1]; low dose group (1.5 mg/kg per Table 8) intragastric, Day 0",20.2 ± 2.0 g
same,body weight,"[1]; low dose group (1.5 mg/kg per Table 8) intragastric, Day 7",20.4 ± 1.5 g
same,body weight,"[1]; low dose group (1.5 mg/kg per Table 8) intragastric, Day 14",21.1 ± 1.6 g
same,body weight,"[1]; middle dose group (3 mg/kg) intragastric, Day 0",19.9 ± 1.9 g
same,body weight,"[1]; middle dose group (3 mg/kg) intragastric, Day 7",20.1 ± 1.7 g
same,body weight,"[1]; middle dose group (3 mg/kg) intragastric, Day 14",20.8 ± 1.7 g
same,increase of the platelet count,"female mouse; 1 mg in 0.5 ml Ringer-Locke solution, injected into abdominal cavity of a female mouse",30%
same,effect on the hemostasis and increase of platelet count,"female mouse; Zhao Guoqiang et al., 1984",significant effect
same,platelet count,"[2]; high dose group A, 4 mg/kg i.p., non modeling, 5th day after first injection of carboplatin",1113.8 ± 356.97 ×10^9/L
same,platelet count,"[2]; high dose group A, 4 mg/kg i.p., non modeling, 5th day after second injection of carboplatin",1163.3 ± 233.2 ×10^9/L
same,platelet count,"[2]; high dose group A, 4 mg/kg i.p., non modeling, 10th day after first injection of carboplatin",638.5 ± 207.9 ×10^9/L
same,platelet count,"[2]; high dose group A, 4 mg/kg i.p., non modeling, 10th day after second injection of carboplatin",873 ± 147.2 ×10^9/L
same,platelet count,"[2]; high dose group A, 4 mg/kg i.p., non modeling, 15th day after first injection of carboplatin",799.5 ± 349.8 ×10^9/L
same,platelet count,"[2]; high dose group A, 4 mg/kg i.p., non modeling, before experiment",625.5 ± 109.3 ×10^9/L
same,platelet count,"[2]; high dose group A, 4 mg/kg i.p., non modeling, prophylactic administration for 10 days",586.9 ± 139.67 ×10^9/L
same,platelet count,"[2]; high dose group B, 4 mg/kg i.p., prophylactic, modeling, 5th day after first injection of carboplatin",392.7 ± 116.9 ×10^9/L
same,platelet count,"[2]; high dose group B, 4 mg/kg i.p., prophylactic, modeling, 5th day after second injection of carboplatin",682.1 ± 266.4 ×10^9/L
same,platelet count,"[2]; high dose group B, 4 mg/kg i.p., prophylactic, modeling, 10th day after first injection of carboplatin",142.6 ± 78.6 ×10^9/L
same,platelet count,"[2]; high dose group B, 4 mg/kg i.p., prophylactic, modeling, 10th day after second injection of carboplatin",150.5 ± 99.9 ×10^9/L
same,platelet count,"[2]; high dose group B, 4 mg/kg i.p., prophylactic, modeling, 15th day after first injection of carboplatin",649.8 ± 234.1 ×10^9/L
same,platelet count,"[2]; high dose group B, 4 mg/kg i.p., prophylactic, modeling, before experiment",619.7 ± 106.81 ×10^9/L
same,platelet count,"[2]; high dose group, 4 mg/kg i.p., 5th day after first injection of carboplatin",302.2 ± 62.2 ×10^9/L
same,platelet count,"[2]; high dose group, 4 mg/kg i.p., 5th day after second injection of carboplatin",758.9 ± 231.2 ×10^9/L
same,platelet count,"[2]; high dose group, 4 mg/kg i.p., 10th day after first injection of carboplatin",186.9 ± 81.0 ×10^9/L
same,platelet count,"[2]; high dose group, 4 mg/kg i.p., 10th day after second injection of carboplatin",133.8 ± 126.3 ×10^9/L
same,platelet count,"[2]; high dose group, 4 mg/kg i.p., 15th day after first injection of carboplatin",1038.3 ± 237.1 ×10^9/L
same,platelet count,"[2]; high dose group, 4 mg/kg i.p., before experiment",625.7 ± 127.04 ×10^9/L
same,increase of platelet count compared with the model group,[2]; high-dose group (4 mg/kg i.p.),27.1%
same,platelet count,"[2]; low dose group, 0.25 mg/kg i.p., 5th day after first injection of carboplatin",331.4 ± 76.3 ×10^9/L
same,platelet count,"[2]; low dose group, 0.25 mg/kg i.p., 5th day after second injection of carboplatin",712.8 ± 324.7 ×10^9/L
same,platelet count,"[2]; low dose group, 0.25 mg/kg i.p., 10th day after first injection of carboplatin",157.8 ± 49.3 ×10^9/L
same,platelet count,"[2]; low dose group, 0.25 mg/kg i.p., 10th day after second injection of carboplatin",133 ± 83.661 ×10^9/L
same,platelet count,"[2]; low dose group, 0.25 mg/kg i.p., 15th day after first injection of carboplatin",956.8 ± 266.5 ×10^9/L
same,platelet count,"[2]; low dose group, 0.25 mg/kg i.p., before experiment",611.5 ± 90.19 ×10^9/L
same,platelet count,"[2]; middle dose group, 1 mg/kg i.p., 5th day after first injection of carboplatin",359 ± 102.4 ×10^9/L
same,platelet count,"[2]; middle dose group, 1 mg/kg i.p., 5th day after second injection of carboplatin",620.2 ± 226.1 ×10^9/L
same,platelet count,"[2]; middle dose group, 1 mg/kg i.p., 10th day after first injection of carboplatin",197.7 ± 78.8 ×10^9/L
same,platelet count,"[2]; middle dose group, 1 mg/kg i.p., 10th day after second injection of carboplatin",70.386 ± 36.845 ×10^9/L
same,platelet count,"[2]; middle dose group, 1 mg/kg i.p., 15th day after first injection of carboplatin",1043.4 ± 288.1 ×10^9/L
same,platelet count,"[2]; middle dose group, 1 mg/kg i.p., before experiment",623 ± 98 ×10^9/L
same,increase of platelet count compared with the model group,[2]; middle-dose group (1 mg/kg i.p.),34.4%
same,"organ index, Adrenal gland",[3]; [4],0.03 ± 0.004 g/100 g body weight
same,"organ index, Liver",[3]; [4],3.33 ± 0.22 g/100 g body weight
same,"organ index, Spleen",[3]; [4],0.28 ± 0.05 g/100 g body weight
same,"organ index, Thymus gland",[3]; [4],0.18 ± 0.08 g/100 g body weight
same,"organ index, Adrenal gland",[3]; [5],0.03 ± 0.01 g/100 g body weight
same,"organ index, Liver",[3]; [5],3.70 ± 0.31 g/100 g body weight
same,"organ index, Spleen",[3]; [5],0.36 ± 0.10 g/100 g body weight
same,"organ index, Thymus gland",[3]; [5],0.10 ± 0.03 g/100 g body weight
same,"organ index, Adrenal gland","[3]; high dose group, 4 mg/kg i.p.",0.03 ± 0.004 g/100 g body weight
same,"organ index, Liver","[3]; high dose group, 4 mg/kg i.p.",3.61 ± 0.46 g/100 g body weight
same,"organ index, Spleen","[3]; high dose group, 4 mg/kg i.p.",0.32 ± 0.11 g/100 g body weight
same,"organ index, Thymus gland","[3]; high dose group, 4 mg/kg i.p.",0.11 ± 0.02 g/100 g body weight
same,"organ index, Adrenal gland",[3]; [6],0.03 ± 0.004 g/100 g body weight
same,"organ index, Liver",[3]; [6],3.71 ± 0.21 g/100 g body weight
same,"organ index, Spleen",[3]; [6],0.35 ± 0.06 g/100 g body weight
same,"organ index, Thymus gland",[3]; [6],0.11 ± 0.02 g/100 g body weight
same,"organ index, Adrenal gland",[3]; [7],0.03 ± 0.01 g/100 g body weight
same,"organ index, Liver",[3]; [7],3.50 ± 0.52 g/100 g body weight
same,"organ index, Spleen",[3]; [7],0.32 ± 0.10 g/100 g body weight
same,"organ index, Thymus gland",[3]; [7],0.09 ± 0.04 g/100 g body weight
